**Q.** With `O=[N+]([O-])c1c(Cl)cc(Cl)c([N+](=O)[O-])c1Cl` as the compound, how does the solubility (mole fraction) (in 1,2-dichloroethane, 278.15 K) read?
**A.** 0.0536

**Q.** And the solubility (mole fraction) (in 1,2-dichloroethane, 283.15 K)?
**A.** 0.0636

**Q.** What about the solubility (mole fraction) (in 1,2-dichloroethane, 288.15 K) of the same compound?
**A.** 0.0732

**Q.** And the solubility (mole fraction) (in 1,2-dichloroethane, 293.15 K)?
**A.** 0.0837

**Q.** And the solubility (mole fraction) (in 1,2-dichloroethane, 298.15 K)?
**A.** 0.0961

**Q.** And the solubility (mole fraction) (in 1,2-dichloroethane, 303.15 K)?
**A.** 0.108

**Q.** And the solubility (mole fraction) (in 1,2-dichloroethane, 308.15 K)?
**A.** 0.123

**Q.** And the solubility (mole fraction) (in 1,2-dichloroethane, 313.15 K)?
**A.** 0.144

**Q.** And the solubility (mole fraction) (in 1,2-dichloroethane, 318.15 K)?
**A.** 0.168

**Q.** What about the solubility (mole fraction) (in acetone, 278.15 K) of the same compound?
**A.** 0.0844

**Q.** What about the solubility (mole fraction) (in acetone, 283.15 K) of the same compound?
**A.** 0.0944

**Q.** What about the solubility (mole fraction) (in acetone, 288.15 K) of the same compound?
**A.** 0.106

**Q.** And the solubility (mole fraction) (in acetone, 293.15 K)?
**A.** 0.117

**Q.** What about the solubility (mole fraction) (in acetone, 298.15 K) of the same compound?
**A.** 0.13

**Q.** What about the solubility (mole fraction) (in acetone, 303.15 K) of the same compound?
**A.** 0.145

**Q.** And the solubility (mole fraction) (in acetone, 308.15 K)?
**A.** 0.162

**Q.** And the solubility (mole fraction) (in acetone, 313.15 K)?
**A.** 0.18

**Q.** And the solubility (mole fraction) (in acetone, 318.15 K)?
**A.** 0.2

**Q.** And the solubility (mole fraction) (in acetonitrile, 278.15 K)?
**A.** 0.0224

**Q.** And the solubility (mole fraction) (in acetonitrile, 283.15 K)?
**A.** 0.0267

**Q.** What about the solubility (mole fraction) (in acetonitrile, 288.15 K) of the same compound?
**A.** 0.0313

**Q.** What about the solubility (mole fraction) (in acetonitrile, 293.15 K) of the same compound?
**A.** 0.0373

**Q.** And the solubility (mole fraction) (in acetonitrile, 298.15 K)?
**A.** 0.0447

**Q.** What about the solubility (mole fraction) (in acetonitrile, 303.15 K) of the same compound?
**A.** 0.0531

**Q.** And the solubility (mole fraction) (in acetonitrile, 308.15 K)?
**A.** 0.0635

**Q.** What about the solubility (mole fraction) (in acetonitrile, 313.15 K) of the same compound?
**A.** 0.0769

**Q.** And the solubility (mole fraction) (in acetonitrile, 318.15 K)?
**A.** 0.0928

**Q.** What about the solubility (mole fraction) (in chloroform, 278.15 K) of the same compound?
**A.** 0.0715

**Q.** What about the solubility (mole fraction) (in chloroform, 283.15 K) of the same compound?
**A.** 0.0892

**Q.** What about the solubility (mole fraction) (in chloroform, 288.15 K) of the same compound?
**A.** 0.0997

**Q.** And the solubility (mole fraction) (in chloroform, 293.15 K)?
**A.** 0.11

**Q.** And the solubility (mole fraction) (in chloroform, 298.15 K)?
**A.** 0.121

**Q.** And the solubility (mole fraction) (in chloroform, 303.15 K)?
**A.** 0.129

**Q.** What about the solubility (mole fraction) (in chloroform, 308.15 K) of the same compound?
**A.** 0.141

**Q.** What about the solubility (mole fraction) (in chloroform, 313.15 K) of the same compound?
**A.** 0.165

**Q.** What about the solubility (mole fraction) (in chloroform, 318.15 K) of the same compound?
**A.** 0.197

**Q.** And the solubility (mole fraction) (in dichloromethane, 278.15 K)?
**A.** 0.0668

**Q.** What about the solubility (mole fraction) (in dichloromethane, 283.15 K) of the same compound?
**A.** 0.0758

**Q.** And the solubility (mole fraction) (in dichloromethane, 288.15 K)?
**A.** 0.0869

**Q.** And the solubility (mole fraction) (in dichloromethane, 293.15 K)?
**A.** 0.0981

**Q.** And the solubility (mole fraction) (in dichloromethane, 298.15 K)?
**A.** 0.11

**Q.** What about the solubility (mole fraction) (in dichloromethane, 303.15 K) of the same compound?
**A.** 0.125

**Q.** What about the solubility (mole fraction) (in dichloromethane, 308.15 K) of the same compound?
**A.** 0.141

**Q.** And the solubility (mole fraction) (in dichloromethane, 311.15 K)?
**A.** 0.147

**Q.** What about the solubility (mole fraction) (in ethanol, 278.15 K) of the same compound?
**A.** 0.00389

**Q.** And the solubility (mole fraction) (in ethanol, 283.15 K)?
**A.** 0.00461

**Q.** And the solubility (mole fraction) (in ethanol, 288.15 K)?
**A.** 0.00539

**Q.** And the solubility (mole fraction) (in ethanol, 293.15 K)?
**A.** 0.0062

**Q.** What about the solubility (mole fraction) (in ethanol, 298.15 K) of the same compound?
**A.** 0.00712

**Q.** What about the solubility (mole fraction) (in ethanol, 303.15 K) of the same compound?
**A.** 0.00831

**Q.** What about the solubility (mole fraction) (in ethanol, 308.15 K) of the same compound?
**A.** 0.00969

**Q.** What about the solubility (mole fraction) (in ethanol, 313.15 K) of the same compound?
**A.** 0.0113

**Q.** And the solubility (mole fraction) (in ethanol, 318.15 K)?
**A.** 0.0132

**Q.** What about the solubility (mole fraction) (in ethyl acetate, 278.15 K) of the same compound?
**A.** 0.0768

**Q.** And the solubility (mole fraction) (in ethyl acetate, 283.15 K)?
**A.** 0.0849

**Q.** And the solubility (mole fraction) (in ethyl acetate, 288.15 K)?
**A.** 0.0947

**Q.** And the solubility (mole fraction) (in ethyl acetate, 293.15 K)?
**A.** 0.105

**Q.** What about the solubility (mole fraction) (in ethyl acetate, 298.15 K) of the same compound?
**A.** 0.116

**Q.** What about the solubility (mole fraction) (in ethyl acetate, 303.15 K) of the same compound?
**A.** 0.13

**Q.** And the solubility (mole fraction) (in ethyl acetate, 308.15 K)?
**A.** 0.145

**Q.** What about the solubility (mole fraction) (in ethyl acetate, 313.15 K) of the same compound?
**A.** 0.16

**Q.** What about the solubility (mole fraction) (in ethyl acetate, 318.15 K) of the same compound?
**A.** 0.177

**Q.** And the solubility (mole fraction) (in methanol, 278.15 K)?
**A.** 0.0034

**Q.** What about the solubility (mole fraction) (in methanol, 283.15 K) of the same compound?
**A.** 0.00426

**Q.** What about the solubility (mole fraction) (in methanol, 288.15 K) of the same compound?
**A.** 0.00698

**Q.** What about the solubility (mole fraction) (in methanol, 293.15 K) of the same compound?
**A.** 0.0221

**Q.** What about the solubility (mole fraction) (in methanol, 298.15 K) of the same compound?
**A.** 0.0422

**Q.** And the solubility (mole fraction) (in methanol, 303.15 K)?
**A.** 0.0562

**Q.** What about the solubility (mole fraction) (in methanol, 308.15 K) of the same compound?
**A.** 0.0718

**Q.** What about the solubility (mole fraction) (in methanol, 313.15 K) of the same compound?
**A.** 0.0849

**Q.** What about the solubility (mole fraction) (in methanol, 318.15 K) of the same compound?
**A.** 0.0909

**Q.** What about the solubility (mole fraction) (in methyl acetate, 278.15 K) of the same compound?
**A.** 0.074

**Q.** What about the solubility (mole fraction) (in methyl acetate, 283.15 K) of the same compound?
**A.** 0.0832

**Q.** What about the solubility (mole fraction) (in methyl acetate, 288.15 K) of the same compound?
**A.** 0.0943

**Q.** What about the solubility (mole fraction) (in methyl acetate, 293.15 K) of the same compound?
**A.** 0.109

**Q.** And the solubility (mole fraction) (in methyl acetate, 298.15 K)?
**A.** 0.124

**Q.** And the solubility (mole fraction) (in methyl acetate, 303.15 K)?
**A.** 0.14

**Q.** What about the solubility (mole fraction) (in methyl acetate, 308.15 K) of the same compound?
**A.** 0.156

**Q.** What about the solubility (mole fraction) (in methyl acetate, 313.15 K) of the same compound?
**A.** 0.173

**Q.** What about the solubility (mole fraction) (in methyl acetate, 318.15 K) of the same compound?
**A.** 0.19

**Q.** And the solubility (mole fraction) (in n-butanol, 278.15 K)?
**A.** 0.00475

**Q.** What about the solubility (mole fraction) (in n-butanol, 283.15 K) of the same compound?
**A.** 0.00566

**Q.** And the solubility (mole fraction) (in n-butanol, 288.15 K)?
**A.** 0.00668

**Q.** What about the solubility (mole fraction) (in n-butanol, 293.15 K) of the same compound?
**A.** 0.00776

**Q.** What about the solubility (mole fraction) (in n-butanol, 298.15 K) of the same compound?
**A.** 0.00906

**Q.** What about the solubility (mole fraction) (in n-butanol, 303.15 K) of the same compound?
**A.** 0.0108

**Q.** What about the solubility (mole fraction) (in n-butanol, 308.15 K) of the same compound?
**A.** 0.013

**Q.** What about the solubility (mole fraction) (in n-butanol, 313.15 K) of the same compound?
**A.** 0.0157

**Q.** What about the solubility (mole fraction) (in n-butanol, 318.15 K) of the same compound?
**A.** 0.0189

**Q.** What about the solubility (mole fraction) (in n-propanol, 278.15 K) of the same compound?
**A.** 0.00412

**Q.** And the solubility (mole fraction) (in n-propanol, 283.15 K)?
**A.** 0.0049

**Q.** What about the solubility (mole fraction) (in n-propanol, 288.15 K) of the same compound?
**A.** 0.00565

**Q.** And the solubility (mole fraction) (in n-propanol, 293.15 K)?
**A.** 0.00668

**Q.** And the solubility (mole fraction) (in n-propanol, 298.15 K)?
**A.** 0.00793

**Q.** What about the solubility (mole fraction) (in n-propanol, 303.15 K) of the same compound?
**A.** 0.00921

**Q.** What about the solubility (mole fraction) (in n-propanol, 308.15 K) of the same compound?
**A.** 0.0109

**Q.** And the solubility (mole fraction) (in n-propanol, 313.15 K)?
**A.** 0.0132

**Q.** And the solubility (mole fraction) (in n-propanol, 318.15 K)?
**A.** 0.0158

**Q.** What about the solubility (mole fraction) (in tetrachloromethane, 278.15 K) of the same compound?
**A.** 0.0155

**Q.** And the solubility (mole fraction) (in tetrachloromethane, 283.15 K)?
**A.** 0.0185

**Q.** What about the solubility (mole fraction) (in tetrachloromethane, 288.15 K) of the same compound?
**A.** 0.0224

**Q.** And the solubility (mole fraction) (in tetrachloromethane, 293.15 K)?
**A.** 0.0277

**Q.** And the solubility (mole fraction) (in tetrachloromethane, 298.15 K)?
**A.** 0.0341

**Q.** And the solubility (mole fraction) (in tetrachloromethane, 303.15 K)?
**A.** 0.0411

**Q.** What about the solubility (mole fraction) (in tetrachloromethane, 308.15 K) of the same compound?
**A.** 0.0492

**Q.** And the solubility (mole fraction) (in tetrachloromethane, 313.15 K)?
**A.** 0.0589

**Q.** What about the solubility (mole fraction) (in tetrachloromethane, 318.15 K) of the same compound?
**A.** 0.0695
